Three sequences from patent US12138291B2, “Hemostatic composition and hemostatic method using hemostatic composition” (3-D MATRIX, LTD., priority 2015, dated 2024) can be followed below.

Series [1] in a line: Storage elastic modulus of peptide solutions before application (frequency sweep test). The settings on record: shear stress 1 Pa. In kind it is physicochemical. On the procedure:
Frequency sweep tests were conducted from 1 rad/sec to 10 rad/sec at a shear stress of 1 Pa, and the storage elastic modulus at 10 rad/sec was selected as data. As for a viscosity before gelling, tests were conducted for a soaking time of 2 min by loading each peptide solution between 20 mm plates with a gap distance of 500 um.

The test system of series [2] is bleeding site of the porcine liver. Briefly: Hemostasis of oozing bleeding created by abrading the porcine liver, usual application vs spray application. In kind it is in vivo, pig. The settings on record: for hemostasis outcome: peptide 1.5% (FIG. 9). The source says:
Oozing bleeding was created by abrading the porcine liver using a metal file. A self-organizing peptide solution was applied to the bleeding by usual application or spray application and evaluated for its hemostatic effect and applied amount.
• Animal species: pig • Breed: LWD • Sex: female • The number of animals introduced: 2 • Age in days at the time of introduction: any Body weight at the time of introduction: 50 kg Institute receiving the animals: Narita experimental laboratory of NAS Laboratory Co., Ltd. • Distributor of the animals: Ishige Tikusan • Acclimatization period: approximately 7 days after introduction • Quarantine: the absence of abnormalities was confirmed by quarantine under clinical observation at the time of introduction and during the acclimatization period. • Individual discrimination: ear tag <Rearing Conditions> (1) Rearing environment
Atropine sulfate was intramuscularly administered at 0.05 mg/kg (dosing volume: 0.1 mL/kg) to each animal. Approximately 30 minutes later, 20 mg/kg (dosing volume: 0.4 mL/kg) of ketamine hydrochloride and 4 mg/kg (dosing volume: 0.2 mL/kg) of xylazine hydrochloride were mixed and intramuscularly administered thereto. Each anesthetic was introduced by the intramuscular administration to the ear root using a disposable syringe (Terumo Corp.) attached with an 18 G injection needle (Terumo Corp.). Then, a tracheal tube (TOP intratracheal tube, TOP Corp.) was intubated, and the anesthesia was maintained with isoflurane using an inhalation anesthesia apparatus SUBARU-KJ02 (Mikasa Kantou Syoukai Co., Ltd.) and a mechanical ventilator (COMPOS β-EV, Metran Co., Ltd.). The perioperative isoflurane concentration was set to 1 to 3%, and the amount of oxygen was set to 2 L/min. The intrapulmonary pressure of the mechanical ventilator was set to 15 cm H2O, and the respiratory rate was set to 15 times/min. Each animal was placed supine on an operating table and covered with a sterilized drape.
• 1. Each completely anesthetized pig was laparotomized by abdominal midline incision using a surgical knife and an electric surgical knife to expose the liver. • 2. Oozing bleeding was created by abrading the liver using a metal file. • 3. Each test substance was applied to the bleeding inclined plane by usual application (*1) or spray application (*2). • 4. The time from after the end of application to the end of assessment of the completion of hemostasis was measured using a stopwatch (*3). The amount of each test substance used until the end of the test was recorded. • *1: A syringe was packed with the peptide solution (test substance), and the peptide solution was pushed out of a nozzle at the tip of the syringe and thereby applied to the subject (see the syringe of FIG. 1). • 2: A syringe (equivalent to that of FIG. 1) packed with the peptide solution (test substance) was loaded in a spray gun, and compressed air was blown to a nozzle at the tip of the syringe using a compressor so that the peptide solution pushed out of the nozzle was sprayed to the subject. The spray pressure was generally 0.5 to 1.5 [kgf/cm2], though differing depending on the viscosity of each test substance, the status of bleeding, and the distance to the application site. • 3: If bleeding was not weakened after initial application (if it was judged that this condition would not lead to hemostasis), additional application was appropriately performed. The time of completion of initial application was defined as the start of measurement, and the time of completion of hemostasis assessment was defined as the end of measurement. <Results>

[3] abbreviates: peptide concentrations of 1.5% or higher (1.5%, 2.0%, 2.5%).

Turning to IEIKIEIKIEIKI [Peptide No. 2], the “Storage elastic modulus G′ (Pa) (mean: N = 3)” value (shortened to “Storage elastic modulus G′ (Pa)”) in series [1] (peptide 1.0% by weight, pH 3.0, at 10 rad/sec) was 349.0 Pa; in series [1] (peptide 1.5% by weight, pH 3.0, at 10 rad/sec), 2,309 Pa. The “amount of the solution applied until hemostasis, spray application group compared with usual application group” value in series [2] (peptide concentration 1.0%) is on record as “no significant difference”; in series [2] (peptide concentration 1.5%) it was “smaller amount of the solution applied until hemostasis”. Also, the “hemostasis completion time, spray application group compared with usual application group” value in series [2] (peptide concentration 1.0%) was “no significant difference”; in series [2] (peptide concentration 1.5%), “evidently resulted in a shorter hemostasis completion time”.

Regarding RADARADARADARADA [Peptide No. 1], the “Storage elastic modulus G′ (Pa)” value was found to be 30 Pa in series [1] (peptide 1.0% by weight, pH no treatment, at 10 rad/sec); 75 Pa in series [1] (peptide 1.5% by weight, pH no treatment, at 10 rad/sec); 141 Pa in series [1] (peptide 2.0% by weight, pH no treatment, at 10 rad/sec); 503 Pa in series [1] (peptide 2.5% by weight, pH no treatment, at 10 rad/sec). For the same sequence, the “amount of the solution applied until hemostasis, spray application group compared with usual application group” value in series [2] (peptide concentration 1.0%) and in series [2] (setting [3]) was “smaller amount of the solution applied until hemostasis” in each case. Besides, the figures for the “hemostasis completion time, spray application group compared with usual application group” value in series [2] (peptide concentration 1.0%) and in series [2] (setting [3]) were “tendencies of a shorter hemostasis completion time” and “evidently resulted in a shorter hemostasis completion time”, respectively.

“RLDLRLALRLDLR (Ac-RLDLRLALRLDLR-NH2) [Peptide No. 3, self-assembling peptide, solution in purified water]”: the “Storage elastic modulus G′ (Pa)” value in series [1] (peptide 1.0% by weight, pH 7.5, at 10 rad/sec) was determined as 75 Pa; in series [1] (peptide 1.5% by weight, pH 7.5, at 10 rad/sec) it was 239 Pa; in series [1] (peptide 2.0% by weight, pH 7.5, at 10 rad/sec), 439 Pa. The hemostasis outcome in series [2] (spray application) was “succeeded in hemostasis”; in series [2] (usual application), “failed in hemostasis”.
